Consider four compounds from article PMC11285948, “The effects of CYP2B6 inactivators on the metabolism of ciprofol” (PLOS ONE, 2024).

Where “and” joins values, the source holds several entries; their conditions need not be identical. Equal entries are not always repeated.

For data set [1], the system named is recombinant human CYP2B6 enzyme. Conditions: cited from earlier work; for inhibition of recombinant human CYP2B6 enzyme activity: psoralen: ref Ji et al. 13, clopidogrel (bupropion as substrate): ref 31, 32.
Data set [2] relates to ciprofol metabolism in rat liver microsomes (RLMs). Kind of data set: Effects of psoralen and clopidogrel on ciprofol metabolism in RLM incubation system (substrate elimination, HPLC-MS/MS). Conditions: for IC50: 10 min preincubation, n = 3; for Relative residual activity (ciprofol metabolism): samples 1-3 and Mean; for degree of inhibitory effect on ciprofol metabolism: grading after ref 23. It is filed as in vitro ADME. The protocol: (§1) The volume of the incubation system was 200 μL and included 2 μL of substrate (ciprofol), 8 μL of rat liver microsomes (RLMs) or 6 μL of human liver microsomes (HLMs), 12 μL of NADPH generation system of solution (solution A 10 μL, solution B 2 μL), and the remaining volume was PBS. The incubation was performed in a water bath at a constant temperature of 37°C, and each sample was incubated three times in parallel.
(§2) The incubation system was removed from the water bath, and the reaction was terminated immediately by adding 800 μL of reaction termination solution (acetonitrile solution containing 5 μg·mL^-1 D6-ciprofol at 4°C). The mixture was vortexed for 2 min and centrifuged for 15 min, after which the supernatant was transferred to an autosampler vial for HPLC-MS/MS detection.
(§3) The incubation system was prepared according to the optimal incubation conditions, and different concentrations of psoralen or clopidogrel solution were added to the blank incubation system at concentrations of 0, 5, 12.5, 25, 50, 75, 100, 150, and 200 μmol·L^-1 and 0, 0.2, 0.5, 1, 2, 5, 10, 25, and 50 μmol·L^-1, respectively. The incubation system was preincubated in a water bath (37°C) for 10 min, and ciprofol was added to the system and subsequently incubated subsequently. The effects of psoralen and clopidogrel on the metabolism of ciprofol were investigated based on ΔC.
(§4) The substrate elimination method was employed in this study, and GraphPad Prism 8.0.2 software was used for statistical processing, including determination of the kinetic parameters of ciprofol metabolism and the IC50 values of psoralen and clopidogrel for ciprofol metabolism. The maximum velocity (Vmax), Michaelis constant (Km) and intrinsic clearance (CLint) were calculated using the […]: V=Vmax×[S]/Km+[S] CLint=Vmax/Km

Data set [3] relates to ciprofol metabolism in human liver microsomes (HLMs). Put plainly: Effects of psoralen and clopidogrel on ciprofol metabolism in HLM incubation system (substrate elimination, HPLC-MS/MS). The format is in vitro ADME. The conditions noted are these: for IC50: 10 min preincubation, n = 3; for Relative residual activity (ciprofol metabolism): samples 1-3 and Mean; for degree of inhibitory effect on ciprofol metabolism: grading after ref 23. The protocol: as §1, §2, §3, §4

Another data set has as its system SD rats. Kind of data set: Duration of loss of righting reflex (LORR) after ciprofol injection in rats. The format is in vivo, rat. The conditions noted are these: psoralen 27 mg·kg^-1 or clopidogrel 7.5 mg·kg^-1 gavage daily 7 d, then ciprofol 2.4 mg·kg^-1 i.v. The protocol:
Twenty-four SD rats were randomly and equally divided into three groups: the control group, psoralen group and clopidogrel group. The administration scheme was as follows: the control group received 0.5% carboxy methyl cellulose by gavage (1 mL·200 g^-1), the psoralen group received 27 mg·kg^-1 psoralen by gavage, and the clopidogrel group was gavaged with 7.5 mg·kg^-1 clopidogrel. […] All rats were treated once daily for seven days. Each rat was injected with 2.4 mg·kg^-1 ciprofol via the tail vein 12 h after the end of dosing on Day 7. Rats that received ciprofol injection were placed on a flat and soft insulation pad. Timekeeping began when the rats were in the supine position and lost the righting reflex and ended when the rats could turn to the prone position successfully. The duration of loss of righting reflex (LORR) in each rat was measured. During this period, approximately 300 μL of blood was collected from the inner canthus at 2, 4, 8, 12, 16, 20, 30, 45, and 60 min after ciprofol administration, and the plasma was separated. The plasma was processed and measured as described in Section 2.4.3, and DAS 2.0 software and a noncompartmental model were used to analyse the pharmacokinetic parameters.
IBM SPSS Statistics 27 software was used to analyse the main pharmacokinetic parameters, and GraphPad Prism 8.0.2 software was used for graphical visualization. […]

Another data set concerns ciprofol metabolism. Set-up: method as in PMID 37309663. Conditions: clinical trials NCT03758469, NCT04145583, NCT05181007; cited from earlier work.

As usually defined, the IC50 is the point on the concentration scale where inhibition reaches its midpoint. Read a low IC50 as inhibition by little substance. As for `COC(=O)[C@H](c1ccccc1Cl)N1CCc2sccc2C1` [clopidogrel], the “inhibition of recombinant human CYP2B6 enzyme activity” value in data set [1] is on record as “strongly inhibits”. For the same compound, in data set [1] (recombinant human CYP2B6, bupropion as substrate), the “inactivation potency relative to its thiolactone metabolite” value is 11 times. Further, the 50% inhibitory concentration (IC50) was determined as 6.38 µM in data set [2] and 2.56 µM in data set [3]. Also, the “Relative residual activity (ciprofol metabolism)” value (shortened to “Relative residual activity”) was 96.32% and 84.60% and 95.79% in data set [2] (Cclopidogrel 0.20 μM); 90.44% and 83.76% and 96.63% in data set [2] (Cclopidogrel 0.50 μM); 88.66% and 86.92% and 76.64% in data set [2] (Cclopidogrel 1.00 μM); 75.16% and 58.26% and 69.88% in data set [2] (Cclopidogrel 2.00 μM); 50.35% and 43.15% and 60.40% in data set [2] (Cclopidogrel 5.00 μM); 42.20% and 50.96% and 39.90% in data set [2] (Cclopidogrel 10.00 μM). The “Relative residual activity” value in data set [2] (Cclopidogrel 25.00 μM) was 32.17% and 28.83% and 23.03%; in data set [2] (Cclopidogrel 50.00 μM), 11.08% and 18.95% and 13.85%; in data set [3] (Cclopidogrel 0.20 μM), 88.53% and 84.40% and 91.91%; in data set [3] (Cclopidogrel 0.50 μM) it was 70.42% and 76.69% and 80.24%; in data set [3] (Cclopidogrel 1.00 μM), 66.15% and 57.16% and 70.67%; in data set [3] (Cclopidogrel 2.00 μM) it was 58.07% and 44.78% and 46.16%. For the same compound, the “Relative residual activity” value was 36.69% and 31.97% and 37.99% in data set [3] (Cclopidogrel 5.00 μM); 32.45% and 25.93% and 29.26% in data set [3] (Cclopidogrel 10.00 μM); 23.23% and 27.69% and 23.00% in data set [3] (Cclopidogrel 25.00 μM); 19.78% and 11.54% and 13.21% in data set [3] (Cclopidogrel 50.00 μM). For the same compound, the “degree of inhibitory effect on ciprofol metabolism” value in data set [2] and in data set [3] was “moderate inhibitory effects” in each case. For the same compound, the “prolongation of duration of LORR compared with control group” value with SD rats is listed as 23.0%.
Turning to `Cc1cccc(Nc2ccccc2C(=O)O)c1C` [mefenamic acid], in the data set on ciprofol metabolism, the “clinical effect on ciprofol metabolism” value is listed as “no clinical effect”.
Take `O=c1ccc2cc3ccoc3cc2o1` [psoralen]: the “inhibition of recombinant human CYP2B6 enzyme activity” value in data set [1] is “moderately inhibit”. For the same compound, the IC50 in data set [2] is 63.3 µM; in data set [3], 34 µM. In addition, the “Relative residual activity” value in data set [2] (Cpsoralen 5 μM) is 93.09% and 97.46% and 90.99%; in data set [2] (Cpsoralen 5 μM, mean) it was 93.85%; in data set [2] (Cpsoralen 12.5 μM), 88.25% and 94.23% and 84.23%; in data set [2] (Cpsoralen 12.5 μM, mean), 88.90%; in data set [2] (Cpsoralen 25 μM), 79.18% and 75.1% and 87.55%; in data set [2] (Cpsoralen 25 μM, mean), 80.61%. Also, the “Relative residual activity” value is 57.26% and 67.87% and 65.65% in data set [2] (Cpsoralen 50 μM); 63.59% in data set [2] (Cpsoralen 50 μM, mean); 32.92% and 44.27% and 51.97% in data set [2] (Cpsoralen 75 μM); 43.05% in data set [2] (Cpsoralen 75 μM, mean); 29.87% and 38.51% and 22.31% in data set [2] (Cpsoralen 100 μM); 30.23% in data set [2] (Cpsoralen 100 μM, mean). Further, the “Relative residual activity” value in data set [2] (Cpsoralen 150 μM) was 15.05% and 20.24% and 25.14%; in data set [2] (Cpsoralen 150 μM, mean) it was 20.14%; in data set [2] (Cpsoralen 200 μM) it was 14.67% and 20.19% and 12.3%; in data set [2] (Cpsoralen 200 μM, mean), 15.72%; in data set [3] (Cpsoralen 5 μM) it was 85.57% and 90.39% and 83.88%; in data set [3] (Cpsoralen 5 μM, mean), 86.61%. Also, the “Relative residual activity” value in data set [3] (Cpsoralen 12.5 μM) was 76.45% and 75.70% and 82.09%; in data set [3] (Cpsoralen 12.5 μM, mean) it was 78.08%; in data set [3] (Cpsoralen 25 μM), 55.36% and 59.73% and 68.81%; in data set [3] (Cpsoralen 25 μM, mean), 61.30%; in data set [3] (Cpsoralen 50 μM) it was 40.24% and 31.49% and 40.07%; in data set [3] (Cpsoralen 50 μM, mean) it was 37.27%. In addition, the “Relative residual activity” value is 32.40% and 26.96% and 29.47% in data set [3] (Cpsoralen 75 μM); 29.61% in data set [3] (Cpsoralen 75 μM, mean); 17.05% and 23.45% and 21.45% in data set [3] (Cpsoralen 100 μM); 20.65% in data set [3] (Cpsoralen 100 μM, mean); 6.19% and 12.50% and 10.40% in data set [3] (Cpsoralen 200 μM); 9.70% in data set [3] (Cpsoralen 200 μM, mean). Further, the “degree of inhibitory effect on ciprofol metabolism” value in data set [2] and in data set [3] was “mild inhibitory effects” each time. For the same compound, in the data set with SD rats, the “prolongation of duration of LORR compared with control group” value was 16.1%.
On to `CO[C@H]1/C=C/O[C@@]2(C)Oc3c(C)c(O)c4c(O)c(c(/C=N/N5CCN(C)CC5)c(O)c4c3C2=O)NC(=O)/C(C)=C\C=C\[C@H](C)[C@H](O)[C@@H](C)[C@@H](O)[C@@H](C)[C@H](OC(C)=O)[C@@H]1C` [rifampicin], for which, in the data set with ciprofol metabolism, the “clinical effect on ciprofol metabolism” value was “no clinical effect”.
